From patent publication US8536187B2 (Gilead Sciences, Inc., priority 2008, dated 2013)

What was measured:
[1] = CC50 assay (CellTiter-Glo) in Huh-7 HCV replicon cells; type: cell-based; conditions: human
Method in brief: (§1)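 Cytotoxicity (CC50) read by CellTiter-Glo luminescence after 10 min, and antiviral EC50 by luciferase signal after 30 min lysis with substrate, both at room temperature. Preceding step: 3-day exposure of 6000 Huh-7 HCV replicon cells per well to compound dilution series at 37° C, 5% CO2, in 0.5% DMSO.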

[2] = system: HCV replicon in human hepatoma Huh-7 cell line; experiment: Anti-HCV replicon assay, EC50 (luciferase luminescence); type: cell-based; conditions: Hepatitis C virus, Huh-7, 72 h
Method in brief: as §1

SMILES | CC50 at 3 days ([1]; Table 2, 3 days incubation) | EC50 [2] | CC50 at 3 days ([1]; Table 1, 3 days incubation)
C#Cc1ccc2nc(N[C@H](C)c3ccc(S(N)(=O)=O)cc3)nc(OC(C)C)c2n1 [Example 306, (R)-4-(1-(6-ethynyl-4-isopropoxypyrido[3,2-d]pyrimidin-2-ylamino)ethyl) benzenesulfonamide] | < 1 µM | 0.25 to 2 µM | –
C[C@@H](Nc1nc(NCC(F)(F)F)c2nc(-c3cccc(S(C)(=O)=O)c3)ccc2n1)c1ccc(S(N)(=O)=O)cc1 [Example 17, (R)-4-{1-[6-(3-Methanesulfonyl-phenyl)-4-(2,2,2-trifluoro-ethylamino)-pyrido[3,2-d]pyrimidin-2-ylamino]-ethyl}-benzenesulfonamide] | – | < 0.1 µM | 10 to 25 µM
CC#Cc1ccc2nc(N[C@H](C)c3ccc(S(N)(=O)=O)cc3)nc(OC3CCC3)c2n1 [Example 310, (R)-4-(1-(4-cyclobutoxy-6-(prop-1-ynyl)pyrido[3,2-d]pyrimidin-2-ylamino)ethyl) benzenesulfonamide] | > 10 µM | < 0.1 µM | –
NS(=O)(=O)c1cc(F)cc(CNc2nc(NC3(C(F)(F)F)CC3)c3nc(C#CC4CC4)ccc3n2)c1 [Example 63, 3-((6-(2-cyclopropylethynyl)-4-(1-(trifluoromethyl)cyclopropylamino)pyrido[3,2-d]pyrimidin-2-ylamino)methyl)-5-fluorobenzenesulfonamide] | > 10 µM | < 0.1 µM | –
CS(=O)(=O)c1cccc(-c2ccc3nc(NCCS(N)(=O)=O)nc(NCC(F)(F)F)c3n2)c1 [Example 137, 2-(6-(3-(methylsulfonyl)phenyl)-4-(2,2,2-trifluoroethylamino)pyrido [3,2-d]pyrimidin-2-ylamino)ethanesulfonamide] | > 10 µM | 0.1 to 0.25 µM | –
C[C@@H](Nc1nc(NC2(C(F)(F)F)CCCCC2)c2nc(-c3ccc(F)cc3)ccc2n1)c1ccc(S(N)(=O)=O)cc1 [Example 67, (R)-4-(1-(6-(4-fluorophenyl)-4-(1-(trifluoromethyl)cyclohexylamino)pyrido[3,2-d]pyrimidin-2-ylamino)ethyl)benzenesulfonamide] | > 10 µM | 0.25 to 2 µM | –
CC(C)Oc1nc(NCc2ccc(-n3cncn3)cc2)nc2ccc(C#CC3CC3)nc12 [Example 308, N-(4-(1H-1,2,4-triazol-1-yl)benzyl)-6-(2-cyclopropyl-ethynyl)-4-isopropoxypyrido [3,2-d]pyrimidin-2-amine] | > 10 µM | 0.25 to 2 µM | –
Nc1ccc(-c2ccc3nc(NCc4ccc(-n5cncn5)cc4)nc(NC4(C(F)(F)F)CC4)c3n2)cn1 [Example 112, N^2-(4-(1H-1,2,4-triazol-1-yl)benzyl)-6-(6-aminopyridin-3-yl)-N^4-(1-(trifluoromethyl)cyclopropyl)pyrido[3,2-d] pyrimidine-2,4-diamine] | 1 to 10 µM | < 0.1 µM | –
COc1ccc(-c2ccc3nc(NCc4ccc(S(N)(=O)=O)cc4)nc(NCC(F)(F)F)c3n2)cc1S(=O)(=O)N1CCOCC1 [Example 227, 4-((6-(4-methoxy-3-(morpholinosulfonyl)phenyl)-4-(2,2,2-trifluoroethylamino)pyrido[3,2-d]pyrimidin-2-ylamino)methyl)benzene-sulfonamide] | 1 to 10 µM | < 0.1 µM | –
FC(F)(F)C1(Nc2nc(NCc3ccc(-n4cncn4)cc3)nc3ccc(-c4ccc(NC5CC5)nc4)nc23)CC1 [Example 127, N^2-(4-(1H-1,2,4-triazol-1-yl)benzyl)-6-(6-(cyclopropylamino)pyridin-3-yl)-N^4-(1-(trifluoromethyl)cyclopropyl)pyrido[3,2-d] pyrimidine-2,4-diamine] | 1 to 10 µM | < 0.1 µM | –
NS(=O)(=O)c1ccc(CNc2nc(NC3(C(F)(F)F)CC3)c3nc(-c4cccc(C(F)(F)F)c4)ccc3n2)cc1 [Example 80, 4-((4-(1-(trifluoromethyl)cyclopropylamino)-6-(3-(trifluoromethyl)phenyl)pyrido [3,2-d]pyrimidin-2-ylamino)methyl)benzenesulfonamide] | 1 to 10 µM | 0.25 to 2 µM | –
CC#Cc1ccc2nc(NCc3cc(Cl)cc(S(N)(=O)=O)c3)nc(OC3(C)CC3)c2n1 [Example 311, 3-chloro-5-((4-(1-methylcyclo-propoxy)-6-(prop-1-ynyl)pyrido [3,2-d]pyrimidin-2-ylamino)methyl)benzenesulfonamide] | > 10 µM | < 0.1 µM | –
CC1(Oc2nc(NCc3ccc(-n4cncn4)cc3)nc3ccc(-c4cnc(OC5CC5)nc4)nc23)CC1 [Example 257, N-(4-(1H-1,2,4-triazol-1-yl)benzyl)-6-(2-cyclopropoxy-pyrimidin-5-yl)-4-(1-methyl-cyclopropoxy)pyrido[3,2-d] pyrimidin-2-amine] | 1 to 10 µM | < 0.1 µM | –
NS(=O)(=O)c1cc(CNc2nc(NCC(F)(F)F)c3nc(-c4ccc(F)cc4)ccc3n2)cc(C(F)(F)F)c1 [Example 8, 3-{[6-(4-Fluoro-phenyl)-4-(2,2,2-trifluoro-ethylamino)-pyrido[3,2-d]pyrimidin-2-ylamino]-methyl}-5-trifluoromethyl-benzenesulfonamide] | – | 0.25 to 2 µM | > 25 µM
CS(=O)(=O)c1cc(-c2ccc3nc(NCc4cccnc4)nc(NCC(F)(F)F)c3n2)ccc1OC(F)F [Example 178, 6-(4-(difluoromethoxy)-3-(methylsulfonyl)phenyl)-N^2-(pyridin-3-ylmethyl)-N^4-(2,2,2-trifluoroethyl)pyrido [3,2-d]pyrimidine-2,4-diamine] | 1 to 10 µM | < 0.1 µM | –
C[C@@H](Nc1nc(NCC(F)(F)F)c2nc(-c3cccc(S(C)(=O)=O)c3)ccc2n1)c1ccc(-n2cncn2)cc1 [Example 170, N^2-((R)-1-(4-(1H-1,2,4-triazol 1-yl)phenyl)ethyl)-6-(3-(methylsulfonyl)phenyl)-N^4-(2,2,2-trifluoroethyl)pyrido [3,2-d]pyrimidine-2,4-diamine] | 1 to 10 µM | < 0.1 µM | –
NS(=O)(=O)c1ccc(CNc2nc(NCC(F)(F)F)c3nc(C#CC4CC4)ccc3n2)cc1 [Example 279, 4-((6-(2-cyclopropylethynyl)-4-(2,2,2-trifluoroethylamino)pyrido[3,2-d]pyrimidin-2-ylamino)methyl)benzene-sulfonamide] | > 10 µM | 0.1 to 0.25 µM | –
COCC#Cc1ccc2nc(NCc3cc(C(F)(F)F)cc(S(N)(=O)=O)c3)nc(NCC(F)(F)F)c2n1 [Example 282, 3-((6-(3-methoxyprop-1-ynyl)-4-(2,2,2-trifluoroethylamino)pyrido[3,2-d]pyrimidin-2-ylamino)methyl)-5-(trifluoro-methyl)benzenesulfonamide] | > 10 µM | 0.25 to 2 µM | –
CS(=O)(=O)c1cc(-c2ccc3nc(NCc4ccc(-n5cncn5)cc4)nc(O[C@@H]4C[C@@H]5C[C@@H]5C4)c3n2)ccc1OC(F)F [Example 195, N-(4-(1H-1,2,4-triazol-1-yl)benzyl)-4-((1S,3r,5R)-bicyclo[3.1.0]hexan-3-yloxy)-6-(4-(difluoromethoxy)-3-(methylsulfonyl)phenyl)pyrido [3,2-d]pyrimidin-2-amine] | 1 to 10 µM | < 0.1 µM | –
C[C@@H](Nc1nc(NC2(C(F)(F)F)CCCC2)c2nc(-c3ccc(F)cc3)ccc2n1)c1ccc(S(N)(=O)=O)cc1 [Example 71, (R)-4-(1-(6-(4-fluorophenyl)-4-(1-(trifluoromethyl)cyclo-pentylamino)pyrido[3,2-d]pyrimidin-2-ylamino)ethyl) benzenesulfonamide] | > 10 µM | 0.25 to 2 µM | –
